Assay results as given in US12133855B2, “Lipid-like nanocomplexes and uses thereof” (Trustees of Tufts College, priority 2018, dated 2024).
Where two headings read alike, the source gives them in different places.

Legend:
[1] = Thiol-triggered size variation of OCholB LNPs (DTT, cysteine; DLS); assay type: physicochemical; settings: for decrease in size: 20 μM L-cysteine, 6 h of incubation; for increase in averaged hydrodynamic diameter: 24 h; for increase of relative size: first 2 h
Source text: The thiol-trigged degradation and dissociation of the OCholB LNPs were studied by time-dependent DLS measurements and TEM observation. […] The disruption of the vesicle structure is considered to be resulted from the thiol-exchange and disulfide bond cleavage reactions of OCholB lipidoids. We next investigated whether the thiol-containing molecules (e.g. albumin, cysteine, homocysteine, cysteinylglycine, etc.) in the serum may induce the structural disintegration of these disulfide bond-containing LNPs. The stabilities of LNPs in the presence of 20 μM of L-cysteine (Cys), which mimics the free thiols on the small- and macromolecules presented in the serum, were examined. […] While the degrees of size changes vary between lipidoids with different amine head groups, all lipidoids were more responsive to DTT (modeling intracellular conditions) than to Cysteine (modeling conditions in the blood serum).

[2] = tested on: HeLa cells; experiment: Internalization of Nile red loaded nanoparticles (NR+ cells); assay type: cell-based; settings: 4 h of exposure
[3] = tested on: HeLa-DsRed cells; experiment: Cre mRNA delivery (DsRed+ cells); assay type: cell-based; settings: lipidoid/mRNA=10/1, [mRNA]=0.86 μg mL^−1, 24 h
Experimental: Next, the possibility of using OCholB LNPs to deliver mRNA for genome editing (Cre-loxP and CRISPR/Cas9 systems) purposes was examined. First, Cre mRNA was complexed with OCholB LNPs and tested against HeLa-DsRed cells. The HeLa-DsRed cells express red fluorescent protein, DsRed, only upon Cre protein-mediated recombination. After 24 h of incubation with mRNA/LNPs (lipidoid/mRNA=10/1; [mRNA]=0.86 μg mL^−1), the DsRed^+ cell portions were determined by flow cytometry. […] Then the Cas9 mRNA that expresses a version of Streptococcus pyogenes SF370 Cas9 protein with an N and C terminal nuclear localization signal (NLS) were loaded into LNPs, along with single-guide RNA (sgRNA) that targets a sequence on GFP gene. GFP-HEK cells which steadily express GFP proteins were used a cell model in this case. GFP-cells, indicating a successful Cas9-mediated knockdown of GFP expression, were analyzed using flow cytometry. […] This was also found to be applicable to protein delivery in our previous studies.
In this context, two strategies were tested, i.e., synthesizing new OCholB-tailed lipidoids with single tail rather than full substitution, and adding helper lipids (phospholipids) into fully substituted OCholB LNPs. Single-tailed lipidoids, 75-OCholB-1, 76-OCholB-1 and […] at first following similar protocols as described before and characterized by ESI-MS ([75-OCholB-1+H]^+, 736.55; [76-OCholB-1+H]^+, 734.64; [77-OCholB-1+H]^+, 748.73). Nanoparticles were than fabricated using the same sonication/vortex procedures and the obtained LNPs were measured by DLS (75-OCholB-1, <Dh>=302.6 nm, μ2/I^2=0.30; 76-OCholB-1, <Dh>=294.5 nm, μ2/I^2=0.30; 77-OCholB-1, <Dh>=254.2 nm, μ2/I^2=0.33). […] 69.4%, 72.5% and 68.9% of GFP^+ cells were determined for mRNA/75-OCholB-1, mRNA/76-OCholB-1 and mRNA/77-OCholB-1 treated HeLa cells, respectively. Cre mRNA could also be efficiently delivered into HeLa-DsRed cells, as 87.3% (mRNA/75-OCholB-1), 82.8% (mRNA/76-OCholB-1) and 81.5% (mRNA/77-OCholB-1) of cells were determined to be DsRed^+ after 24 h of exposure (FIG. 14G). […]

[4] = tested on: HeLa-DsRed cells; assay type: cell-based; settings: for cell morphology (bright field images) vs untreated cells / mean fluorescence intensity of treated cells: [lipidoid]=6.6 μg mL^−1, [(−30)GFP-Cre]=100 nM; for green fluorescence signals (fluorescent images): protein/nanoparticle treated HeLa-DsRed cells
Experimental: The internalization kinetics and efficiencies of OCholB LNPs were then studied using NR loaded LNPs and HeLa cells. […] Next, all of the NR delivery efficiencies of eight OCholB LNPs were determined after 8 h of exposure. […] Representative fluorescent images of NR/LNPs (NR/75-OCholB, NR/76-OCholB and NR/77-OCholB) treated HeLa cells are shown in FIG. 12D, from which it is easily observed that NR was delivered into the cells and mainly distributed in cytoplasm, by OCholB LNPs. Next, the internalization of negatively charged hydrophilic fluorescent dye, calcein, was studied. […] Next, the use of OCholB LNPs for the intracellular delivery of macromolecular cargo was explored, using fluorescent recombinant (−30)GFP-Cre protein and HeLa-DsRed cells as the model system. […] Delivery efficiency was tested at a range of (−30)GFP-Cre protein concentrations (25, 50 and 100 nM), with a consistent lipid/protein ratio (i.e., delivery with the final lipid concentration of 1.7, 3.3, and 6.6 μg mL^−1 respectively). 33.2%, 43.8% and 74% of GFP positive (GFP^+) cells were recorded for (−30)GFP-Cre/Lpf2k treated cells with the concentration of (−30)GFP-Cre 25 nM, 50 nM and 100 nM, respectively. […] The typical flow cytometry profiles of naked (−30)GFP-Cre protein and (−30)GFP-Cre loaded nanoparticles ((−30)GFP-Cre/75-OCholB, (−30)GFP-Cre/76-OCholB, (−30)GFP-Cre/77-OCholB and (−30)GFP-Cre/Lpf2k) treated HeLa-DsRed cells were shown in and FIG. 12H ([lipidoid]=6.6 μg mL^−1 and [(−30)GFP-Cre]=100 nM), which is consistent with the statistical results shown in FIG. 12G. Furthermore, the representative fluorescent images from the protein and protein/nanoparticle treated HeLa-DsRed cells are also shown in FIG. 12I.

[5] = (−30)GFP-Cre 50 nM, lipid 3.3 μg mL^−1
[6] = (−30)GFP-Cre 100 nM, lipid 6.6 μg mL^−1
[7] = (−30)GFP-Cre 25 nM, lipid 1.7 μg mL^−1

Compound	decrease in size [1] [%]	increase in size ([1]; 10 mM DTT, 6 h) [%]	increase in averaged hydrodynamic diameter ([1]; 10 mM DTT) [%]	increase of relative size ([1]; 10 mM DTT) [%]	NR^+ cells [2] [%]	DsRed^+ cells [3] [%]	GFP positive (GFP^+) cells [4, 5] [%]	GFP positive (GFP^+) cells [4, 6] [%]	cell morphology (bright field images) vs untreated cells [4]	mean fluorescence intensity of treated cells [4]	green fluorescence signals (fluorescent images) [4]	GFP positive (GFP^+) cells [4, 7] [%]
CCN(CC)CCN(CCC(=O)OCCSSCCNC(=O)OC1CCC2(C)C(=CCC3C2CCC2(C)C(C(C)CCCC(C)C)CCC32)C1)CCC(=O)OCCSSCCNC(=O)OC1CCC2(C)C(=CCC3C2CCC2(C)C(C(C)CCCC(C)C)CCC32)C1 (centres unmarked) [Lipidoid 75-OCholB]	12.2	1315.7	2872.4	566.4	85.2	67.2	42.3	93.1	no evident morphological change	much more efficient than others	Strong green fluorescence signals	
CC(C)CCCC(C)C1CCC2C3CC=C4CC(OC(=O)NCCSSCCOC(=O)CCN(C)CCN(CCN(C)CCC(=O)OCCSSCCNC(=O)OC5CCC6(C)C(=CCC7C6CCC6(C)C(C(C)CCCC(C)C)CCC76)C5)CCN(C)CCC(=O)OCCSSCCNC(=O)OC5CCC6(C)C(=CCC7C6CCC6(C)C(C(C)CCCC(C)C)CCC76)C5)CCC4(C)C3CCC12C (centres unmarked) [Lipidoid 304-OCholB]			3849.6					48.8				
CC(C)CCCC(C)C1CCC2C3CC=C4CC(OC(=O)NCCSSCCOC(=O)CCN(CCC(=O)OCCSSCCNC(=O)OC5CCC6(C)C(=CCC7C6CCC6(C)C(C(C)CCCC(C)C)CCC76)C5)CCN5CCCC5)CCC4(C)C3CCC12C (centres unmarked) [Lipidoid 76-OCholB]	14.6			498.5	65.0	48.7	96.3	98.7	no evident morphological change	much more efficient than others	Strong green fluorescence signals	66.4
CC(C)CCCC(C)C1CCC2C3CC=C4CC(OC(=O)NCCSSCCOC(=O)CCN(CCC(=O)OCCSSCCNC(=O)OC5CCC6(C)C(=CCC7C6CCC6(C)C(C(C)CCCC(C)C)CCC76)C5)CCN(C)C)CCC4(C)C3CCC12C (centres unmarked) [Lipidoid 78-OCholB]			4642.8				46.1	90.1				
CC(C)CCCC(C)C1CCC2C3CC=C4CC(OC(=O)NCCSSCCOC(=O)CCN(CCCN(C)C)CCC(=O)OCCSSCCNC(=O)OC5CCC6(C)C(=CCC7C6CCC6(C)C(C(C)CCCC(C)C)CCC76)C5)CCC4(C)C3CCC12C (centres unmarked) [Lipidoid 80-OCholB]							88.9	97.0		much more efficient than others		54.7
CC(C)CCCC(C)C1CCC2C3CC=C4CC(OC(=O)NCCSSCCOC(=O)CCN(CCC(=O)OCCSSCCNC(=O)OC5CCC6(C)C(=CCC7C6CCC6(C)C(C(C)CCCC(C)C)CCC76)C5)CCC5CCCN5C)CCC4(C)C3CCC12C (centres unmarked) [Lipidoid 77-OCholB]	7.2			1591.4	90.3	72.8	90.7	97.9	no evident morphological change	much more efficient than others	Strong green fluorescence signals	66.4
CCN(CC)CCCN(CCC(=O)OCCSSCCNC(=O)OC1CCC2(C)C(=CCC3C2CCC2(C)C(C(C)CCCC(C)C)CCC32)C1)CCC(=O)OCCSSCCNC(=O)OC1CCC2(C)C(=CCC3C2CCC2(C)C(C(C)CCCC(C)C)CCC32)C1 (centres unmarked) [Lipidoid 81-OCholB]							87.4	91.5		much more efficient than others		40.9
